According to patent publication US20120202690A1, “HERBICIDAL COMPOUNDS” (SYNGENTA LIMITED, priority 2009, published 2012):

How the values were obtained:
Assay type in all cases: in vivo
[1] = system: Alopecurus myosuroides (ALOMY); assay: Post-emergence biological efficacy, glasshouse, 500 or 1000 g/ha, evaluated after 13 days (100=total damage to plant; 0=no damage to plant); conditions: Alopecurus myosuroides, 312 h, rate 1,000 g/ha, read-out: Percentage damage caused to weed species, post-emergence, ALOMY
Method in brief: (§1)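 Standard soil, potted from seed; post-emergence treatment; glasshouse 24/16° C. (day/night), 14 h light, 65% humidity; watering twice daily.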

[2] = system: Echinochloa crusgaffi (ECHCG); assay: as above; conditions: Echinochloa, 312 h, rate 1,000 g/ha, read-out: Percentage damage caused to weed species, post-emergence, ECHCG
Method in brief: as §1

[3] = system: Ipomoea hederaceae (IPOHE); assay: as above; conditions: Ipomoea, 312 h, rate 1,000 g/ha, read-out: Percentage damage caused to weed species, post-emergence, IPOHE
Method in brief: as §1

[4] = system: Amaranthus retroflexus (AMARE); assay: as above; conditions: Amaranthus retroflexus, 312 h, rate 1,000 g/ha, read-out: Percentage damage caused to weed species, post-emergence, AMARE
Method in brief: as §1

Solanum nigrum (SOLNI) [5] = assay: as above; conditions: Solanum nigrum, 312 h, rate 1,000 g/ha, read-out: Percentage damage caused to weed species, post-emergence, SOLNI
Method in brief: as §1

Setaria faberi (SETFA) [6] = assay: as above; conditions: Setaria faberi, 312 h, rate 1,000 g/ha, read-out: Percentage damage caused to weed species, post-emergence, SETFA
Method in brief: as §1

[7] = system: Alopecurus myosuroides (ALOMY); assay: Pre-emergence biological efficacy, glasshouse, 1000 g/ha, evaluated after 13 days (100=total damage to plant; 0=no damage to plant); conditions: Alopecurus myosuroides, 312 h, rate 1,000 g/ha, read-out: Percentage damage caused to weed species, pre-emergence, ALOMY
Method in brief: (§2)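 Standard soil in pots received the seeds. Growth took place in a glasshouse held at 24/16° C. day/night, 65% humidity and 14 h of light.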

[8] = system: Ipomoea hederaceae (IPOHE); assay: as above; conditions: Ipomoea, 312 h, rate 1,000 g/ha, read-out: Percentage damage caused to weed species, pre-emergence, IPOHE
Method in brief: as §2

[9] = system: Echinochloa crus-galli (ECHCG); assay: as above; conditions: Echinochloa crus-galli, 312 h, rate 1,000 g/ha, read-out: Percentage damage caused to weed species, pre-emergence, ECHCG
Method in brief: as §2

[10] = system: Amaranthus retroflexus (AMARE); assay: as above; conditions: Amaranthus retroflexus, 312 h, rate 1,000 g/ha, read-out: Percentage damage caused to weed species, pre-emergence, AMARE
Method in brief: as §2

Solanum nigrum (SOLNI) [11] = assay: as above; conditions: Solanum nigrum, 312 h, rate 1,000 g/ha, read-out: Percentage damage caused to weed species, pre-emergence, SOLNI
Method in brief: as §2

Setaria faberi (SETFA) [12] = assay: as above; conditions: Setaria faberi, 312 h, rate 1,000 g/ha, read-out: Percentage damage caused to weed species, pre-emergence, SETFA
Method in brief: as §2

Structure (SMILES)	pest or weed control at 1000 g/ha [1]	pest or weed control at 1000 g/ha [2]	pest or weed control at 1000 g/ha [3]	pest or weed control at 1000 g/ha [4]	pest or weed control at 1000 g/ha (Solanum nigrum (SOLNI) [5])	pest or weed control at 1000 g/ha (Setaria faberi (SETFA) [6])	pest or weed control at 1000 g/ha [7]	pest or weed control at 1000 g/ha [8]	pest or weed control at 1000 g/ha [9]	pest or weed control at 1000 g/ha [10]	pest or weed control at 1000 g/ha (Solanum nigrum (SOLNI) [11])	pest or weed control at 1000 g/ha (Setaria faberi (SETFA) [12])
O=C(O)c1nc(-c2ccc(Cl)c(F)c2)nc2c1ccn2Cc1ccccc1[N+](=O)[O-] [Compound 8-17, 4-Carboxy-2-(4-chloro-3-fluorophenyl)-7-(2-nitropheny-methyl)-7H-pyrrolo[2,3-d]pyrimidine]	0%	0%	50%	20%	50%	0%	0%	0%	0%	0%	0%	0%
COC(=O)c1nc(-c2ccc(Cl)c(F)c2)nc2c1ccn2Cc1ccccc1[N+](=O)[O-] [Compound 8-18, 2-(4-Chloro-3-fluorophenyl)-4-methoxycarbonyl-7-(2-nitrophenyl-methyl)-7H-pyrrolo[2,3-d]pyrimidine]	0%	0%	20%	0%	30%	0%	0%	0%	0%	0%	0%	0%
COc1c(Cl)ccc(-c2nc(C(=O)O)c3c(C)cn(Cc4ccccc4[N+](=O)[O-])c3n2)c1F [Compound 8-63, 4-Carboxy-2-(4-chloro-2-fluoro-3-methoxyphenyl)-5-methyl-7-(2-nitrophenyl-methyl)-7H-pyrrolo[2 ,3-d]pyrimidine]	10%	50%	60%	70%	80%	20%	0%	30%	0%	10%	40%	0%
COc1c(Cl)ccc(-c2nc(C(=O)O)c3cc(C)n(Cc4ccccc4[N+](=O)[O-])c3n2)c1F [Compound 8-65, 4-Carboxy-2-(4-chloro-2-fluoro-3-methoxyphenyl)-6-methyl-7-(2-nitrophenyl-methyl)-7H-pyrrolo[2,3-d]pyrimidine]	0%	0%	10%	0%	10%	20%	0%	0%	0%	0%	0%	0%
COC(=O)c1nc(-c2ccc(Cl)c(OC)c2F)nc2c1cc(C)n2Cc1ccccc1[N+](=O)[O-] [Compound 8-66, 2-(4-Chloro-2-fluoro-3-methoxyphenyl)-4-methoxycarbonyl-6-methyl-7-(2-nitrophenyl-methyl)-7H-pyrrolo[2,3-d]pyrimidine]	0%	0%	10%	0%	30%	0%	0%	0%	0%	10%	10%	0%
COc1c(Cl)ccc(-c2nc(C(=O)O)c3c(C)cn(Cc4ccc(F)cc4)c3n2)c1F [Compound 9-63]	0%	0%	40%	20%	60%	0%	0%	0%	0%	20%	10%	0%
COc1ccc(Cn2cc(C)c3c(C(=O)O)nc(-c4ccc(Cl)c(OC)c4F)nc32)cc1 [Compound 10-63, 4-Carboxy-2-(4-chloro-2-fluoro-3-methoxyphenyl)-7-(4-methoxyphenyl-methyl)-5-methyl-7H-pyrrolo[2,3-d]pyrimidine]	0%	0%	20%	10%	20%	0%	0%	0%	0%	0%	0%	0%
COC(=O)c1nc(-c2ccc(Cl)c(F)c2)nc2c1ccn2Cc1ccco1 [Compound 11-18, 2-(4-Chloro-3-fluorophenyl)-7-(2-furanyl-methyl)-4-methoxycarbonyl-7H-pyrrolo[2,3-d]pyrimidine]	0%	0%	20%	0%	50%	0%	0%	0%	0%	0%	0%	0%
Cc1cc2c(C(=O)O)nc(-c3ccc(Cl)c(F)c3)nc2n1Cc1ccco1 [Compound 11-21, 4-Carboxy-2-(4-chloro-3-fluorophenyl)-7-(2-furanyl-methyl)-6-methyl-7H-pyrrolo[2,3-d]pyrimidine]	0%	0%	20%	0%	50%	0%	0%	0%	0%	0%	0%	0%
COC(=O)c1nc(-c2ccc(Cl)c(OC)c2F)nc2c1cc(C)n2Cc1ccco1 [Compound 11-66, 2-(4-Chloro-2-fluoro-3-methoxyphenyl)-7-(2-furanylmethyl)-4-methoxycarbonyl-6-methyl-7H-pyrrolo[2,3-d]pyrimidine]	10%	20%	30%	20%	50%	10%	0%	0%	0%	0%	0%	0%
COC(=O)c1nc(Cl)nc2c1cc(C)n2Cc1ccco1 [Compound 11-126, 2-chloro-7-(2-furanylmethyl)-4-methoxycarbonyl-6-methyl-7H-pyrrolo[2,3-d]pyrimidine]	0%	0%	0%	0%	20%	0%	0%	0%	0%	0%	0%	0%
